The target in experiment [1] is T1, Tyrosine-protein kinase ZAP-70 (Homo sapiens, UniProt P43403).
T1 sequence (P43403 whole entry): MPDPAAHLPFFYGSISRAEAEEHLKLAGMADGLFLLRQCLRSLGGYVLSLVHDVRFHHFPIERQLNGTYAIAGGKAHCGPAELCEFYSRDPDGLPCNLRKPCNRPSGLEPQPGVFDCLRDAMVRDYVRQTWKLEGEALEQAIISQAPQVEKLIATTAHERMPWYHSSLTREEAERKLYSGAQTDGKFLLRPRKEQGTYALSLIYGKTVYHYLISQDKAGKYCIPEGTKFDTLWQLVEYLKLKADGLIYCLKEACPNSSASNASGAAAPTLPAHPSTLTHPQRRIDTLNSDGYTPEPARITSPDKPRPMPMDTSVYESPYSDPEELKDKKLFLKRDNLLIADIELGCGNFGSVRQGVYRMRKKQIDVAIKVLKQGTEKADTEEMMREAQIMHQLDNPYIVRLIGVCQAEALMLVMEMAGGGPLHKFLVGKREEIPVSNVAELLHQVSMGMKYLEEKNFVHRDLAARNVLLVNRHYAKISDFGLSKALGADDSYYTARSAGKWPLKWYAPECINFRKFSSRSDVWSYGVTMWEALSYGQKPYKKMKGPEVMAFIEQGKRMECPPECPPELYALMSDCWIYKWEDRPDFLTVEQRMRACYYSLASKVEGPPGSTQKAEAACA
The experiment is described as follows: Inhibition of human ZAP70 (Leu325 to Ala619) expressed in Sf9 cells by coupled spectrophotometric enzyme assay. It counts as cell-based.

Experiment [2] concerns the target Tyrosine-protein kinase Lck (Homo sapiens, UniProt P06239). The experiment is described as follows: Inhibition of Lck.
Experiment [3] concerns the target Tyrosine-protein kinase SYK (Homo sapiens) (UniProt P43405). The experiment is described as follows: Inhibition of Syk.
Experiment [4] concerns the target Proto-oncogene tyrosine-protein kinase Src (Homo sapiens, UniProt P12931). The experiment in a line: Inhibition of Src.
Experiment [5] has as its target Protein kinase C beta type (Homo sapiens, UniProt P05771). The experiment in a line: Inhibition of PKC beta2.
For experiment [6], the target named is T2, Epidermal growth factor receptor (Homo sapiens, UniProt P00533). The experiment is described as follows: Inhibition of EGFR.
The target in experiment [7] is Mitogen-activated protein kinase 3 (Homo sapiens, UniProt P27361). The experiment is described as follows: Inhibition of ERK1.
Experiment [8] has as its target T3, Mitogen-activated protein kinase 8 (Homo sapiens, UniProt P45983). The experiment in a line: Inhibition of JNK1.
Experiment [9] addresses Mitogen-activated protein kinase 14 (Homo sapiens, UniProt Q16539). The experiment in a line: Inhibition of p38 alpha.
Experiment [10] deals with T2, Epidermal growth factor receptor. The experiment is described as follows: Inhibition of EGFR at 10 uM.
In experiment [11] the target is T3, Mitogen-activated protein kinase 8. The experiment in a line: Inhibition of JNK1 at 10 uM.

A word on the IC50: it is the concentration that inhibits the measured activity by half. Low values mean inhibition by little substance, high ones a need for much substance. Broadly, the inhibition is the change of the read-out against control, counted positive when it falls.

Some results are limits rather than exact numbers.

Tyrosine-protein kinase Lck, sequence (P06239 whole entry): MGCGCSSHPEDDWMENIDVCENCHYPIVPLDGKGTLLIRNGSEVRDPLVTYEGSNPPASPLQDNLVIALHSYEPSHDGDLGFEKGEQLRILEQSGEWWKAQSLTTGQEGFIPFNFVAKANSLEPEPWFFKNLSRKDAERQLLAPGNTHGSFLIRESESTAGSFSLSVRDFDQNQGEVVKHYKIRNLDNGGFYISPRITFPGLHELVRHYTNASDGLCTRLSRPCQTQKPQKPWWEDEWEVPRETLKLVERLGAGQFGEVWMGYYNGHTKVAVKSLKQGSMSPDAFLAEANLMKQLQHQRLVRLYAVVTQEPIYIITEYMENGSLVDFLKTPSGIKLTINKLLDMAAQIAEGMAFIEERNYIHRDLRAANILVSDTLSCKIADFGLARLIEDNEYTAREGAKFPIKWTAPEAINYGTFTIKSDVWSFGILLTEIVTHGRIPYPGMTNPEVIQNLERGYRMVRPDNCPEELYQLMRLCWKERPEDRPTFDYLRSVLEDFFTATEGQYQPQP
Proto-oncogene tyrosine-protein kinase Src, sequence (P12931 2-536 limits assumed): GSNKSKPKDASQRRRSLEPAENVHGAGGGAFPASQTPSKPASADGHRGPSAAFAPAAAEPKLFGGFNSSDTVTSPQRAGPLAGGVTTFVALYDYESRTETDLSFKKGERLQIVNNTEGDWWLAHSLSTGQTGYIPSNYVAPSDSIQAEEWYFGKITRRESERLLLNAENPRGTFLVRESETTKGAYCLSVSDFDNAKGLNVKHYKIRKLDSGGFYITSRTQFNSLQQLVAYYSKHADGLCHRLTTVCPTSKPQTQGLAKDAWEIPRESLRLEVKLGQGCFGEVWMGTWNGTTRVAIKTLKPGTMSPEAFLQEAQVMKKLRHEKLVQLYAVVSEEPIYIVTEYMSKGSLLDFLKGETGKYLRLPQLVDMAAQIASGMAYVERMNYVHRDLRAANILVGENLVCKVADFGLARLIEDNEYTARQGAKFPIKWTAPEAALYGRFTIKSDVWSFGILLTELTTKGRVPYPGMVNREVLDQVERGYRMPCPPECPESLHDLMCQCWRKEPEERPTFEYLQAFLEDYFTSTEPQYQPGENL
T3 sequence (P45983 whole entry): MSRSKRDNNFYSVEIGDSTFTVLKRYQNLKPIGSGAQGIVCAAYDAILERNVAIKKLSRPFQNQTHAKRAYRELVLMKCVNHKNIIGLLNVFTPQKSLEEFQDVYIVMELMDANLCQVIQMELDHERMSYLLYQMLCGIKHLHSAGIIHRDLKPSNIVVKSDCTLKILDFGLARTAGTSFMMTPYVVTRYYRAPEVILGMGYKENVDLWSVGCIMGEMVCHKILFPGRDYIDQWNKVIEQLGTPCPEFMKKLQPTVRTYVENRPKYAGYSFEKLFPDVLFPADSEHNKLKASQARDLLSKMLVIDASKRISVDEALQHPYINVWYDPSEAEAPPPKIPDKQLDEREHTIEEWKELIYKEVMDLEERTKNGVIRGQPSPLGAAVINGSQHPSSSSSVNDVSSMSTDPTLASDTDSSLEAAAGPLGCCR
Mitogen-activated protein kinase 3, sequence (P27361 whole entry): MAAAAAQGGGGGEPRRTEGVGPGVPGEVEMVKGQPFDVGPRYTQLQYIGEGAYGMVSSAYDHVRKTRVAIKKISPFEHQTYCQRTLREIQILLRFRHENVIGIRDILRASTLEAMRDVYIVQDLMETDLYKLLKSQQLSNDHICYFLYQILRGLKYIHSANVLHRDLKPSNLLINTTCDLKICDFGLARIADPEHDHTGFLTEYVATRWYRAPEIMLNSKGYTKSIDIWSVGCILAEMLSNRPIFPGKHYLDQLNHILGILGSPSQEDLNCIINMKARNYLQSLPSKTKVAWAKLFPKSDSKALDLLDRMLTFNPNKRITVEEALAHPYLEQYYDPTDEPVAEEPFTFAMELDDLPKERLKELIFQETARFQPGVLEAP
Protein kinase C beta type, sequence (P05771 whole entry): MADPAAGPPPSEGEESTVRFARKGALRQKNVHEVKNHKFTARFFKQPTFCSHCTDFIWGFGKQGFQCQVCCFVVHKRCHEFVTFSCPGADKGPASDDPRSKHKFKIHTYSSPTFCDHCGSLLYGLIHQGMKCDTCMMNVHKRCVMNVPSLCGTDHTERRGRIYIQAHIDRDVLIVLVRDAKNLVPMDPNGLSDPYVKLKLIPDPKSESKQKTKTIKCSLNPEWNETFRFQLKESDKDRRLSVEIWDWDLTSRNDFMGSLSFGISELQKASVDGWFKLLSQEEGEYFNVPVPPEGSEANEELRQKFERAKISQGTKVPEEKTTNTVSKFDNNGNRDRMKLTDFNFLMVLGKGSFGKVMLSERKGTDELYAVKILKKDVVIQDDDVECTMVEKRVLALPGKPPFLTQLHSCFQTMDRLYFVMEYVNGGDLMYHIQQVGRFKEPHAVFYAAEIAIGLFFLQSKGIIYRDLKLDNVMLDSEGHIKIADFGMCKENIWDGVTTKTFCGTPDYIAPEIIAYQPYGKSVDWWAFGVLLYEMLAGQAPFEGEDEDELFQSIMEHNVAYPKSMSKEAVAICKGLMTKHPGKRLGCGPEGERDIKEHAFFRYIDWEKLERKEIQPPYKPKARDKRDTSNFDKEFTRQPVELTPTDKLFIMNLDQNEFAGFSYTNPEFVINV
Mitogen-activated protein kinase 14, sequence (Q16539 whole entry): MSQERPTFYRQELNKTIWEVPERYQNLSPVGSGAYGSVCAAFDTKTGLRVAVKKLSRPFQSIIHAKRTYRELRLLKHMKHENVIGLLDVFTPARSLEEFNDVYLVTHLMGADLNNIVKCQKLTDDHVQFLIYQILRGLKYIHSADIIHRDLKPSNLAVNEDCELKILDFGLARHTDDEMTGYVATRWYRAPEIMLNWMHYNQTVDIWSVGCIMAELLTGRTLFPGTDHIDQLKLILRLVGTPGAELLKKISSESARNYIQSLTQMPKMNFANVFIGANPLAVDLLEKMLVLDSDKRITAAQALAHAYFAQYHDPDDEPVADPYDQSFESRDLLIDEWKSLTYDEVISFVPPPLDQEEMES
T2 sequence (P00533 whole entry): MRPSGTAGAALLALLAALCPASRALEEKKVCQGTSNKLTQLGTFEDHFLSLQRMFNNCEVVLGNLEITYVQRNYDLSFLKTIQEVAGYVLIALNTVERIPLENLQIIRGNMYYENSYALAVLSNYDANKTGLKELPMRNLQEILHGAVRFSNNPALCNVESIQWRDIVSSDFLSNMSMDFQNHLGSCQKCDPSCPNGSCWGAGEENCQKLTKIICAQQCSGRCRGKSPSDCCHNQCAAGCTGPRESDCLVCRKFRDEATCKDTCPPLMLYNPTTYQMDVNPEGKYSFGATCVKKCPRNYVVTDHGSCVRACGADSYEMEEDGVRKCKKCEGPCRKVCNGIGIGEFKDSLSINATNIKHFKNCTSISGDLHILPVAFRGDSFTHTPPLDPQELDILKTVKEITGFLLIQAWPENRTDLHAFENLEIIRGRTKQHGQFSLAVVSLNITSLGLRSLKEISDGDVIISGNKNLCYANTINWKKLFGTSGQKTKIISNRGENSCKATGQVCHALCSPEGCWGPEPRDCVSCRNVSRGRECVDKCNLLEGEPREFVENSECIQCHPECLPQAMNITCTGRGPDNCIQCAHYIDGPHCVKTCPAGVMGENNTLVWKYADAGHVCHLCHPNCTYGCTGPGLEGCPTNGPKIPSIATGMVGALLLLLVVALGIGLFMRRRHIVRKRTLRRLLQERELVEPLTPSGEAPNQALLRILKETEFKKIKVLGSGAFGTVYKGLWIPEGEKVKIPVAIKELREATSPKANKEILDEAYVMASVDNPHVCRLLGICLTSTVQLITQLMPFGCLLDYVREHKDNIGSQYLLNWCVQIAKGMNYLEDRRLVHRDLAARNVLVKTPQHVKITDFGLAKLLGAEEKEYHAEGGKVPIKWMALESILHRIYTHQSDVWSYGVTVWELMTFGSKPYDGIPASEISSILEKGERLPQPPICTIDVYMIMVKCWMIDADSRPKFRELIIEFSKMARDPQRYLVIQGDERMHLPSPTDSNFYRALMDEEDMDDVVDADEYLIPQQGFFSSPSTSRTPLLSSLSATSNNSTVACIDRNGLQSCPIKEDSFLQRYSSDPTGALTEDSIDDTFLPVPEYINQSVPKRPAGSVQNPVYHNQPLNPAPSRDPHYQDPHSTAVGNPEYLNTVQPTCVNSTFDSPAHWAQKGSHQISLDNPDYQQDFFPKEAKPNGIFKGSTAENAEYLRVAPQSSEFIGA

As to `COc1cc(Nc2nc(NCc3ccccc3)n3ccnc3c2C(N)=O)cc(OC)c1`, the IC50 was 0.4 µM in experiment [1] and over 25 µM in experiment [2].

`CC(=O)N[C@@H](Cc1ccc(OP(=O)(O)O)cc1)C(=O)N[C@@H](CO)c1nc(Cc2ccc(C(F)(F)F)cc2)no1` showed an IC50 in [3] of over 500 µM.

As for `CCOC(=O)/C=C/c1ccc(CNc2nc(Nc3cc(OC)cc(OC)c3)c(C(N)=O)c3nccn23)cc1`, the IC50 was 0.088 µM in [1]; over 10 µM in experiment [4]; over 12.5 µM in [2]; over 10 µM in experiment [5]; over 10 µM in [6]; over 10 µM in experiment [7]. Further, the IC50 in [8] and in [9] was over 10 µM in each case.

For `COc1cc(Nc2nc(NCc3ccc(/C=C/C(=O)O)cc3)n3ccnc3c2C(N)=O)cc(OC)c1`, the IC50 was 0.047 µM in experiment [1]; over 10 µM in experiment [4]; over 10 µM in [2]; over 10 µM in [5]; over 10 µM in experiment [7]; over 10 µM in experiment [9]. In addition, the inhibition in experiment [10] is 89%; in experiment [11] it was 90%.

The values above are taken from ChEMBL document CHEMBL1139255, “Structure-activity relationship studies of 5-benzylaminoimidazo[1,2-c]pyrimidine-8-carboxamide derivatives as potent, highly selective ZAP-70 kinase inhibitors” (Bioorg Med Chem, 2009).
